From patent publication US6365195B2, “Fungicidal active compound combinations” (Bayer Aktiengesellschaft, priority 1993, dated 2002)

Experiments:
Type in all cases: in vivo
[1] = test system: Erysiphe graminis f.sp. hordei; assay: Erysiphe test (barley)/protective; details: protective, 50 g/ha, 7 days after inoculation
Description: (§1) Solvent: 10 parts by weight N-methyl-pyrrolidon
(§2) Emulsifier: 0.6 parts by weight alkylarylpoly-glycolether
To produce a suitable preparation of active compound, 1 part by weight of active compound is mixed with the stated amounts of solvent and emulsifier, and the concentrate is diluted with water to the desired concentration.
To test for protective activity, young plants are sprayed with the preparation of active compound until dew-moist. After the spray coating has dried on, the plants are dusted with spores of Erysiphe graminis f.sp. hordei.
The plants are placed in a greenhouse at a temperature of about 20° C. and a relative atmospheric humidty of about 80%, in order to promote the development of powdery mildew pustules.
(§3) Evaluation is carried out 7 days after the inoculation.

[2] = test system: Erysiphe graminis f.sp.hordei; assay: Erysiphe-test (wheat)/curative; details: curative, 200 g/ha, 7 days after inoculation
Description: Solvent: 10 parts by weight of N-methyl-pyrrolidone Emulsifier: 0.6 parts by weight of alkylaryl-polglycolether To produce a suitable preparation of active compound, 1-part by weight of active compound is mixed with the stated amounts of solvent and emulsifier, and the concentrate is diluted with water to the desired concentration. To test for curative activity, young plants are dusted with spores of Erysiphe graminis f.sp.hordei. 48 hours after the inoculation, the plants are sprayed with the preparation of active compound until dew-moist. The plants are placed in a greenhouse at a temperature of about 20° C. and a relative atmospheric humidity of about 80%, in order to promote the development of powdery mildew pustules. Evaluation is carried out 7 days after the inoculation.

[3] = test system: Erysiphe graminis f. sp. hordei; assay: Erysiphe test (wheat) protective; details: 7 days after inoculation
Description: Solvent: 10 parts by weight N-methyl-pyrrolidone
as §2
(§4) To produce a suitable preparation of active compound, 1-part by weight of active compound is mixed with the stated amounts of solvent and emulsifier, and the concentrate is diluted with water to the desired concentration.
To test for protective activity, young plants are dusted with spores of Erysiphe graminis f. sp. hordei. […]
The plants are placed in a greenhouse at a temperature of about 20° C. and a relative atmospheric humidity of about 80%, in order to promote the development of powdery mildew pustules.
as §3

Pyrenophora teres = Pyrenophora teres test (barley)/protective; details: protective, 25 g/ha, 7 days after inoculation
Description: as §1, §2, §4
To test for protective activity, young plants are sprayed with the preparation of active compound until dew moist. After the spray coating has dried off, the plants are sprayed with a conidia suspension of Pyrenophora teres. The plants then remain in an incubation cabin at 20° C. and 100% relative atmospheric humidity for 48 hours.
The plants are placed in a greenhouse at a temperature of about 20° C. and a relative atmospheric humidity of about […].
Evaluation is carried out 7 days after inoculation.

Leptosphaeria nodorum [4] = assay: Leptosphaeria nodorum test (wheat)/protective; details: protective, 10 days after inoculation
Description: Solvent: 100 parts by weight of dimethylformamide
Emulsifier: 0.25 parts by weight of alkylaryl polyglycol ether
as §4
(§5) To test for protective activity, young plants are sprayed with the preparation of active compound until dew-moist. After the spray coating has dried on, the plants are sprayed with a spore suspension of Leptosphaeria nodorum. The plants remain for 48 hours in an incubation cabin at 20° C. and 100% relative atmospheric humidity.
(§6) The plants are placed in a greenhouse at a temperature of 15° C. and a relative atmospheric humidity of about 80%.
(§7) Evaluation is effected 10 days after the inoculation.

Botrytis cinerea = assay: Botrytis test (bean)/protective; details: protective, 3 days after inoculation
Description: After the spray coating has dried on, 2 small pieces-of agar covered with Botrytis cinerea are placed on each leaf. The inoculated plants are placed in a darkened humid chamber at 20° C.
3 days after the inoculation, the size of the infected spots on the leaves is evaluated.

Leptosphaeria nodorum [5] = assay: Leptosphaeria nodorum test (wheat)/curative; details: curative, 400 g/ha, 10 days after inoculation
Description: Solvent: 10 parts by weight of dimethyl-formamide
Emulsifier: 0.6 parts by weight of alkylaryl polyglycol ether
To produce a suitable preparation of active compound, 1-parts by weight of active compound is mixed with the stated amounts of solvent and emulsifier, and the concentrate is diluted with water to the desired concentration.
as §5, with “curative” for “protective”
as §6, §7

## CC1(C(=O)Nc2ccc(O)c(Cl)c2Cl)CCCCC1 [(I)]
[1]
  Degree of effectiveness in % of the untreated control: 0%
[2]
  Degree of effectiveness in % of the untreated control: 30%
[3]; 25 g/ha
  Degree of effectiveness in % of the untreated control: 30%
[3]; 200 g/ha
  Degree of effectiveness in % of the untreated control: 85%
Pyrenophora teres
  Degree of effectiveness in % of the untreated control: 33%
Leptosphaeria nodorum [4]; concentration not given
  Degree of effectiveness in % of the untreated control: 0%
Botrytis cinerea; 5 ppm
  Degree of effectiveness in % of the untreated control: 51%
Leptosphaeria nodorum [5]
  Degree of activity in % of the untreated control: 25%

## CO/C=C(\C(=O)OC)c1ccccc1Oc1cc(Oc2ccccc2C#N)ncn1 [(ηa)]
[1]
  Degree of effectiveness in % of the untreated control: 15%
[3]; 200 g/ha
  Degree of effectiveness in % of the untreated control: 79%

## CO/C=C(\C(=O)OC)c1ccccc1Oc1cc(Oc2ccccc2C#N)ncn1 [(ηb)]
[2]
  Degree of effectiveness in % of the untreated control: 75%

## CO/N=C(\C(=O)OC)c1ccccc1COc1ccccc1C [(ηb)]
[1]
  Degree of effectiveness in % of the untreated control: 85%
[3]; 25 g/ha
  Degree of effectiveness in % of the untreated control: 85%
Pyrenophora teres
  Degree of effectiveness in % of the untreated control: 33%
Leptosphaeria nodorum [5]
  Degree of activity in % of the untreated control: 49%

## COC(=O)Nc1nc2ccccc2[nH]1 [Carbendazim, methyl benzimidazole-2-carbamate]
Botrytis cinerea; 5 ppm
  Degree of effectiveness in % of the untreated control: 52%

## N#Cc1c(Cl)c(Cl)c(Cl)c(C#N)c1Cl [Chlorothalonil, tetrachloro-isophthalo-dinitrile]
Botrytis cinerea; 200 ppm
  Degree of effectiveness in % of the untreated control: 37%

## CN(C)S(=O)(=O)N(SC(F)(Cl)Cl)c1ccccc1 [Dichlofluanid, dichlofluanid]
Botrytis cinerea; 100 ppm
  Degree of effectiveness in % of the untreated control: 32%

## O=[N+]([O-])c1cc(C(F)(F)F)c(Cl)c([N+](=O)[O-])c1Nc1ncc(C(F)(F)F)cc1Cl [Fluazinam, fluazinam]
Botrytis cinerea; 5 ppm
  Degree of effectiveness in % of the untreated control: 20%

## O=C1c2ccccc2C(=O)N1SC(Cl)(Cl)Cl [Phaltan, phaltan]
Botrytis cinerea; 50 ppm
  Degree of effectiveness in % of the untreated control: 0%

## CC12CC1(C)C(=O)N(c1cc(Cl)cc(Cl)c1)C2=O (stereo not drawn) [Procymidone, procymidone]
Botrytis cinerea; 50 ppm
  Degree of effectiveness in % of the untreated control: 44%

## Cc1cc(C)nc(Nc2ccccc2)n1 [Pyrimethanil, pyrimethanil]
Botrytis cinerea; 10 ppm
  Degree of effectiveness in % of the untreated control: 0%

## CC(C)(C)C(O)(CCc1ccc(Cl)cc1)Cn1cncn1 (stereo not drawn) [Tebuconazole]
Leptosphaeria nodorum [4]; spray liquor 25 ppm
  Degree of effectiveness in % of the untreated control: 75%

## Cc1ccc(N(SC(F)(Cl)Cl)S(=O)(=O)N(C)C)cc1 [Tolylfluanid, tolylfluanid]
Botrytis cinerea; 50 ppm
  Degree of effectiveness in % of the untreated control: 32%
